In patent US8728797B2, “Yeast membrane protein expression system and its application in drug screening” (priority 2001, dated 2014):

Tested on: AD124567 cells
Experiment: Glucose-dependent rhodamine 6G efflux
Type: cell-based, S. cerevisiae
Conditions: 40 μM KN20, 5 minute preincubation
Description: De-energised cells were pre-loaded with rhodamine 6G, as described in Materials and methods for Example 4. The efflux of rhodamine 6G at 30° C. was followed by direct measurement of fluorescence in cell supernatants following glucose (2 mM) addition to cell suspensions. (A) The kinetics of energy-dependent rhodamine 6G efflux in strains AD1002 (▪) and AD1-8u^− (●). The fluorescence in supernatants of AD1002 cells in the absence of added glucose is also shown (◯). (B) The effect of KN20 concentration on the energy-dependent efflux of rhodamine 6G from AD124567 cells. The indicated concentrations of KN20 were added to AD124567 cells preloaded with rhodamine 6G, the cells were preincubated for 5 minutes at 30° C. and glucose added to commence rhodamine efflux.
A previously described method (Kolaczkowski, M et al. 1996) was adapted to measure rhodamine 6G (Sigma) efflux from whole cells. Yeast cells from exponentially growing cultures in YEPD (OD600 nm=0.5) were collected by centrifugation (3,000×g, 5 min, 20° C.) and washed three times with water. The washed cells were resuspended at a concentration of 0.5×10^6 to 1.0×10^7 cells per ml in HEPES-NaOH (50 mM, pH 7.0) containing 5 mM 2-deoxyglucose and 10 μM rhodamine 6G. […] The rhodamine 6G fluorescence of samples was measured using a Cary Eclipse spectrofluorimeter (Varian Inc, Victora Australia). […]

Substance: D-octapeptide NH2-Asn-Trp-Trp-Lys-Val-Arg-Arg-Arg-CONH2 with a single 4-methoxy-2,3,6-trimethylbenzenesulphonyl (Mtr) substituent on one tryptophan sidechain; Pdr5p inhibitor [KN20]
- inhibition of rhodamine 6G efflux: 50%
